How the values were obtained:
gastric acid secretion = experiment: Gastric acid secretion inhibitory action, modified "Shay rat" procedure; type: in vivo, rats (male, CFE strain); details: 3 hours
Protocol: The novel compounds of the present invention (and those wherein R2 is hydroxy when X is keto and Y is ethylene) are effective inhibitors of gastric acid secretion and of ulcer development in experimental animals, and thus are potentially valuable as agents for the control of gastric acid secretion and of gastric erosion and as anti-ulcer agents. Gastric acid secretion inhibitory action was measured by the "Shay rat" procedure with some modifications as follows.
The rats (male, CFE strain) were starved for 48 hours (water was given ad libitum) to permit evacuation of stomach contents. On the morning of the experiment, under ether anesthesia, the abdominal region was shaved and a midline incision (1-1 1/2") was made with a scapel. With the help of a closed curved hemostate the duodenum was picked up. Upon getting the duodenum into view, fingers were used to pull the stomach through the opening, the stomach was then gently manipulated with fingers to rid the stomach of air and residual matter which were pushed through the pylorus. Two-5 inch sutures were drawn under the pyloric-duodenal juncture. A ligature, at the juncture, was formed with one of the threads. The second ligature was also formed but not tightened.
The test compound or the vehicle, usually 1 ml./100 g. body weight, were injected into the duodenum as close as possible to the first ligature. […]
The abdominal cavity was exposed by cutting with scissors and the esophagus close to the stomach was clamped off with a hemostat, the stomach was removed by cutting above the hemostat (the esophagus was cut) and between the two sutures. […] The supernatant was collected, volume measured and recorded, 2 drops of a phenolphthalein indicator (1% in 95% ethanol) were added and the solution was titrated with 0.02 N NaOH (or with 0.04 N NaOH when large volumes of stomach contents were encountered) to pH 8.4 (because of usual coloring of the stomach contents, phenolphthalein was only used to permit visual indication that the end point was near) and the amount of acid present was calculated. […]

ulcers = experiment: Indomethacin-induced ulcer assay (anti-ulcer); type: in vivo, Rats; details: Indomethacin 20 mg./kg. s.c., score 0-4
Protocol: Another assay useful for determining potential anti-ulcer agents is carried out in the following manner.
Rats were starved for 48 hours (water was given as libitum). Indomethacin (20 mg./kg. of body weight) was administered by the subcutaneous route and one-half the dose of the test compound was administered by gavage at the same time. After three hours, the second half of the test compound was administered also by gavage. Five hours after the administration of Indomethacin the animals were decapitated and the stomachs removed. The stomachs were washed with distilled water, blotted on gauze, cut along the larger curvature, and the contents rinsed with distilled water. The stomachs were spread out, pinned on a cork and visualized under magnifying glass for ulcers. The critera for scoring of ulcers was as previously reported. [Abdel-Galil et al. Brit. J. Pharmac. Chemotherapy 33:1-14 (1968)].
1-- Petechial hemmorrhage or pin point ulcers
3-- Many ulcers, a few large
4-- Many ulcers, mainly large
Control animals treated with Indomethacin but not test compound consistently give scores of about 2.5-3.5. Control animals treated with neither Indomethacin nor test compound give scores of about 0.5-0.8. Compounds diminishing the control ulcer score by 0.5 unit or more are considered to be active

[1] = tested on: bronchospasms elicited by intravenous injections of 5-hydroxytryptamine, histamine, or acetylchlorine; experiment: Bronchodilator activity by the Konzett procedure; type: in vivo, guinea pigs; details: Cavia porcellus, three logarithmic cumulative intravenous doses
Protocol: Bronchodilator activity was determined in guinea pigs against bronchospasms elicited by intravenous injections of 5-hydroxytryptamine, histamine, or acetylchlorine by the Konzett procedure. [See J. Lulling, P. Lievens, F. El Sayed and J. Prignot, Arzneimittel-Forschung, 18,995 (1968).] This activity is expressed as an ED50 determined from the results obtained with three logarithmic cumulative intravenous doses.

[2] = intraduodenal dose 50 mg./kg. of body weight

| SMILES | Percent Inhibition (gastric acid secretion) (gastric acid secretion; [2]) [%] | Score, Treated Animals (ulcer score) (ulcers; total oral dose 50 mg./kg. of body weight, Controls 2.8) | Percent Inhibition (gastric acid secretion) (gastric acid secretion; intraduodenal dose 12.5 mg./kg. of body weight) [%] | Score, Treated Animals (ulcer score) (ulcers; total oral dose 12.5 mg./kg. of body weight, Controls 2.7) | ED50 ([1]; spasmogenic agent 5-hydroxytryptamine) [µg/kg] | ED50 ([1]; spasmogenic agent acetylcholine) [µg/kg] | ED50 ([1]; spasmogenic agent histamine) [µg/kg] |
| --- | --- | --- | --- | --- | --- | --- | --- |
| CCCCC[C@H](O)/C=C/[C@H]1CC[C@H](O)[C@@H]1C/C=C\CCCC(=O)O [l-11-deoxyprostaglandin F2 α, 11-deoxyprostaglandin F2 α] | 98 | 1.3 | – | – | – | – | – |
| CCCCC[C@H](O)/C=C/[C@H]1CCC(=O)[C@@H]1C/C=C\CCCC(=O)O [l-11-deoxyprostaglandin E2, 11-deoxyprostaglandin E2] | 97 | – | 42 | 1.2 | 5.2 | 10 | 5.2 |
